# Data from patent publication US5856333A, “Substituted camptothecin derivatives and process for their preparation” (Pharmacia & Upjohn S.p.A., priority 1995, dated 1999).
# Legend:
# [1] = test system: L1210 murine leukemia cells; test: evaluation of cytotoxic activity, method (a); assay type: cell-based; settings: Mus musculus, 48 h at 37° C., 5% CO2, dose causing 50% inhibition of cell growth relative to untreated controls, 0.5% DMSO
# Protocol: As an example, the activity of (E)-9-(2-methoxycarbonyl-ethenyl) camptothecin (internal code FCE 28681) and 9-(2-methoxycarbonyl-ethyl) camptothecin (internal code FCE 29559) were tested according to the following method (a).
# The compounds were dissolved in dimethylsulfoxide (DMSO) at a final concentration of 0.5%.
# Method (a): evaluation of cytotoxic activity
# L1210 murine leukemia cells were grown in vitro as a floated cells in RPMI 1640 medium supplemented with 10% fetal calf serum, 1% L-glutamine 200 mM, 1% of B-mercaptoethanol 1 mM, 100 UI/ml penicillin and 100 μg streptomycin. For assaying the cytotoxic activity, exponentially growing cells were seeded at the concentration of 5×10^4 cells/ml and exposed to graded doses of the compounds under evaluation for 48 h at 37° C. in an humidified atmosphere of 5% CO2. The number of surviving cells was determined with a Coulter Counter; results are expressed as IC50 (dose causing 50% inhibition of cell growth in treated cultures relative to untreated controls after 48 h treatment) in this assay, (E)-9-(2-methoxycarbonyl-ethenyl) camptothecin (internal code FCE 28681) and 9-(2-methoxycarbonyl-ethyl) camptothecin (internal code FCE 29559) were tested and the obtained results are reported on Table 1 below.
# [2] = test system: Topoisomerase I; settings: cited from earlier work
# [3] = test system: human albumin; settings: biologically relevant levels of human albumin; cited from earlier work
# [4] = human plasma, 2 hours after drug addition; cited from earlier work
# [5] = test system: cancer cells; settings: both in vitro and in vivo; cited from earlier work
SMILES,IC50 [1] [ng/mL],antitumor activity by inhibition of Topoisomerase I [2],half-life of the biologically active form [3],percentage of drug converted to camptothecin carboxylate [4],anticancer activity of the lactone versus the carboxylate form [5]
"CC[C@@]1(O)C(=O)OCc2c1cc1n(c2=O)Cc2cc3c(/C=C/C(=O)OC)cccc3nc2-1 [FCE 28681, (E)-9-(2-methoxycarbonyl-ethenyl)camptothecin]",3.3 ± 1.8,–,–,–,–
"CC[C@@]1(O)C(=O)OCc2c1cc1n(c2=O)Cc2cc3c(CCC(=O)OC)cccc3nc2-1 [FCE 29559, 9-(2-methoxycarbonyl-ethyl)camptothecin]",2.7 ± 0.5,–,–,–,–
CC[C@@]1(O)C(=O)OCc2c1cc1n(c2=O)Cc2cc3ccccc3nc2-1 [camptothecin],–,potent antitumor activity,about 12 min.,greater than 99%,significantly greater for the lactone versus the carboxylate form
